From patent US20240180891A1, “SYNERGISTIC MODULATORS OF ALPHA-DICARBONYL DETOXIFICATION AND THEIR USE FOR INDUCING WEIGHT LOSS AND THE TREATMENT OF DIABETIC PATHOLOGIES” (Buck Institute for Research on Aging, priority 2020, published 2024)

Columns and labels:
C. elegans = settings: feeding of AGE, data not shown
Excerpt: MGO-derived AGEs have been found in proteins with aging and in age-related diseases (see, e.g., Li et al. (2012) J. Neurol. Sci. 317: 1-5; Cone (2005) Nat. Neurosci. 8: 571-578; Mitchell et al. (2017) Oncotarget, 8: 17453-17474; Li et al. (2012) Neurobiol. Aging 33: 1400-1410). […] To investigate the impact of specific AGEs, we provided synthesized individual AGEs and examined their biological effects. We adapted published procedures to synthesize four AGEs on a gram scale: carboxymethyl-lysine (CML), carboxyethyl-lysine (CEL), fructose-lysine (F-Ly), and methylglyoxal-derived hydroimidazolone MG-H1. CEL and MG-H1 are MGO derived AGEs while CML is glyoxal derived, and F-LY is glucose derived.

C57BL/6 mice = tested on: C57BL/6 mice
Procedure: Percent weight increases indicate the percent change from starting body weights to the weights at the end of the two-week diet. Daily food consumption was measured twice weekly.
Next, we tested if MG-H1, which is detectable in human CSF and serum (Monnier et al. (2005) Ann. N. Y. Acad. Sci. 1043: 567-581), influences feeding in mice. We gave 12 week-old WT mice 100 μM or 200 μM MG-H1 via supplementation of drinking water for two weeks.

C. elegans glod-4 mutant = C. elegans glod-4 mutant screen of natural product library for compounds mitigating MGO toxicity; assay type: in vivo; settings: C. elegans and mammalian neuronal cells; Tim Tec NPL-640 library
Excerpt: (§1) We used C. elegans to screen for compounds that mitigate the detrimental phenotypes in the worm glod-4 mutant. […] This included alpha-lipoic acid (ALA), a drug already prescribed for diabetic neuropathy in certain countries (see, e.g., Giacco et al. (2014) Diabetes 63: 291-299).

[1] = target: T1, transient receptor potential cation channel (TRPA1) (Caenorhabditis elegans, UniProt Q18297); experiment: ALA mechanism: TRPA1 activation and glyoxalase expression; set-up: species or system C. elegans
T1 sequence (Q18297 1-1211): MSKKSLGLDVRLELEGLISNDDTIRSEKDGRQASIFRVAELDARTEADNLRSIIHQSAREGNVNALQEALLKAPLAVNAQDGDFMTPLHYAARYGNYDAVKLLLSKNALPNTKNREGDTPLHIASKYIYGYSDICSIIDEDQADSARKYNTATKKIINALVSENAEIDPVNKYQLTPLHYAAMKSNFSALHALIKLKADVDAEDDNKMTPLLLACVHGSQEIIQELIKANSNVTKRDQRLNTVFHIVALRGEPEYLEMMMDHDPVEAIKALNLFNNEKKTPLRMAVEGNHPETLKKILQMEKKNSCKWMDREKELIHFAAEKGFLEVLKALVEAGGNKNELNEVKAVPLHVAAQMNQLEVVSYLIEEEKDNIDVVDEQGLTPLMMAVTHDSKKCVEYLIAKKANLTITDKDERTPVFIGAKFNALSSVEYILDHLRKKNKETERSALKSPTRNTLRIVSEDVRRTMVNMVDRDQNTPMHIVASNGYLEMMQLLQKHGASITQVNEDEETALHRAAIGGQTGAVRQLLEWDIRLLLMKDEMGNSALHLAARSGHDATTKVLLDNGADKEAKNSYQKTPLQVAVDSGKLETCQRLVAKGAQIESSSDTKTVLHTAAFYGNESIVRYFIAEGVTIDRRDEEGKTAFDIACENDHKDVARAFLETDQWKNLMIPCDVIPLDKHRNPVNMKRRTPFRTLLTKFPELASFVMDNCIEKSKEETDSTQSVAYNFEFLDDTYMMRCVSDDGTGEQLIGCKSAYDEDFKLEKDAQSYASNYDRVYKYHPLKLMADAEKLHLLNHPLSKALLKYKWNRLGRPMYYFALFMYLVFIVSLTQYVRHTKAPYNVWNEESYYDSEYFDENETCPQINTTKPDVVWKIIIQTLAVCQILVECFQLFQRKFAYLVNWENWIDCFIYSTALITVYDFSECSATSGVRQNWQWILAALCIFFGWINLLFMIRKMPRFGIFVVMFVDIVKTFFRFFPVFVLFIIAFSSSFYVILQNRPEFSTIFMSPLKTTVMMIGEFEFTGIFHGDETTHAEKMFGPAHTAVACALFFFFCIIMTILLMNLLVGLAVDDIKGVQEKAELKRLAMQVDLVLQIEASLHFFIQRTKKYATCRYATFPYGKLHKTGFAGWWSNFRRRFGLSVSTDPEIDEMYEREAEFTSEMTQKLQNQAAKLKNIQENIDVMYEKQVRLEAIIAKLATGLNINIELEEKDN
Excerpt: FIG. 4 illustrates a proposed model for how MGO is sensed by TRPA1 to activate SKN-1/Nrf2 and mediate detoxification of MGO through downstream glyoxalases in worms and mammals. MGO is sensed by TRPA-1 leading to the activation of SKN-1/Nrf2 pathway. This in turn activates downstream glyoxalases GLO1 and DJ1 (Id.).
as §1

[2] = single compounds; cited from earlier work
[3] = recent human trial (Bierhaus et al.); cited from earlier work
[4] = higher dose (200 μM) in drinking water, two weeks

SMILES	food intake (C. elegans)	triglyceride content (C. elegans)	hourly food intake (C57BL/6 mice; data not shown)	water intake (C57BL/6 mice; data not shown)	energy expenditure (C57BL/6 mice; higher dose)	oxygen consumption (C57BL/6 mice; higher dose)	body weights (C57BL/6 mice; [4])	food intake (C57BL/6 mice; [4])	amelioration of deleterious effects of MGO toxicity (C. elegans glod-4 mutant)	TRPA1 activation [1]	expression of glyoxalases (DJ1 and GLO1) [1]	protection against obesity [2]	weight [3]
CC1NC(NCCC[C@H](N)C(=O)O)=NC1=O (some centres unmarked) [MG-H1, hydroimidazolone Nδ-(5-hydro-5-methyl-4-imidazolon-2-yl) ornithine]	enhances food intake	increases triglyceride content	increase in hourly food intake	relatively similar water intake	reactive increase	reactive increase	significant increase	significant increase	–	–	–	–	–
O=C(O)CCCCC1CCSS1 (stereo not drawn) [alpha-lipoic acid, 1,2-dithiolane-3-pentanoic acid]	–	–	–	–	–	–	–	–	ameliorate the deleterious effects of MGO toxicity	activates	enhancing the expression	protect against obesity	effectiveness in reducing weight
NC(=O)c1cccnc1 [nicotinamide]	–	–	–	–	–	–	–	–	–	–	–	protect against obesity	–
